Test results taken from US10479788B2, “Compounds that inhibit MPS1 kinase” (Cancer Research Technology Limited, priority 2012, dated 2019).

Target: full length MPS1 (Homo sapiens (Human), UniProt P33981)
Test: Measurement of Inhibition of MPS1 Kinase
Format: biochemical
Settings: full length MPS1 12.5 nM or 3 nM, H236 peptide 5 μM, ATP 10 μM, 60 min at room temperature, Caliper EZ reader II
Experimental: The reaction was carried out for 60 min at room temperature and stopped by the addition of buffer (10 μl) containing 20 mM EDTA, 0.05% (v/v) Brij-35, in 0.1M HEPES-buffered saline (Free acid, Sigma, UK). The plate was read on a Caliper EZ reader II (Caliper Life Sciences).
The % inhibition of the compounds is calculated relative to the means of selected control wells. […] The % inhibitions at each concentration are then fitted to a 4 parameter logistic fit: y=(a+((b−a)/(1+((c/x^d)))) where a=asym min, b=asym max, c=IC50 and d=hill coefficient

full length MPS1, sequence (P33981 whole entry): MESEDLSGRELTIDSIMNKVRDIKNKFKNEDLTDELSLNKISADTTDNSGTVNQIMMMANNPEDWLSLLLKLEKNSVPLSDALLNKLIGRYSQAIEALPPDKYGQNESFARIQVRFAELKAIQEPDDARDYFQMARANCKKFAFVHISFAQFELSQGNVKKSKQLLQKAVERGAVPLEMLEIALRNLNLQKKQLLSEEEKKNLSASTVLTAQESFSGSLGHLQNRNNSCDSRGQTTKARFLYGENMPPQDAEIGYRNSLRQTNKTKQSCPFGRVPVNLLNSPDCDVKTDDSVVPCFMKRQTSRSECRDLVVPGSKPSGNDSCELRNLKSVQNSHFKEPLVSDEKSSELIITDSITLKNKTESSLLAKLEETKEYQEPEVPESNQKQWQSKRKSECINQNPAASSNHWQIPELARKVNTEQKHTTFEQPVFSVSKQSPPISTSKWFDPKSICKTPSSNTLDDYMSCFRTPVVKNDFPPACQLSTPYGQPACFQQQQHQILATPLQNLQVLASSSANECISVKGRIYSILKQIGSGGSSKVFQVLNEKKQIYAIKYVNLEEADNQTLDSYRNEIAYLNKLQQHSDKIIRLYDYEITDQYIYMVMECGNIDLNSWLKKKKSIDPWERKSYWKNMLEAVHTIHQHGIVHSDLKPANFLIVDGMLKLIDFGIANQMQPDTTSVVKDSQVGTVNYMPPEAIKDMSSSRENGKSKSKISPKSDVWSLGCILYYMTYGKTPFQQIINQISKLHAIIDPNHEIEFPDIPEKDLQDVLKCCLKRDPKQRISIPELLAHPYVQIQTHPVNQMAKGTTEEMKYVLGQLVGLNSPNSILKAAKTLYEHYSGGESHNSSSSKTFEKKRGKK

Compound `COc1cc(-c2cnn(C)c2)ccc1Nc1ncc2ccnc(N3CCCC3C)c2n1` (stereo not shown) [Example 64] has an IC50 of 6 nM.
